According to patent US7575930B2, “Method for analyzing oligosaccharides from blood plasma” (priority 2005, dated 2009):

What was measured:
[1] = Monitoring of the plasma concentration of the main oligosaccharides of a VLMWH in human volunteers (plasma filtration + anion-exchange HPLC); type: in vivo
Method: (§1) A plasma sample with a volume of between 100 and 1000 μl is withdrawn and, if appropriate, the internal standard is added to the latter.
(§2) After homogenization, the resulting solution is introduced into a 30 kD Ultrafree 05 ultrafiltration cartridge (Millipore) rinsed beforehand with 250 μl of water by centrifuging at 10 000 rev/min for 5 minutes. The plasma is introduced into the upper part of the cartridge once or twice, if the amounts to be filtered are greater than 500 μl.
(§3) The cartridge is centrifuged at 10 000 rev/min for between 1 and 2 hours and then the filtrate is withdrawn. If appropriate, the second part of the plasma to be filtered is introduced into the upper part of the cartridge and the latter is again centrifuged. The exact amount of plasma introduced will have been weighed. The cartridge is centrifuged until the protein residue in the upper part of the cartridge represents no more than approximately 10% of the initial part.
(§4) The filtrate is withdrawn and 210 μl of 3M KCl per ml of plasma filtered are added to the concentrate.
(§5) After homogenization, the cartridge is centrifuged at 10 000 rev/min for between 1 and 4 hours. The cartridge is centrifuged until the protein residue in the upper part of the cartridge represents no more than approximately 10% of the initial part.
(§6) The second filtrate is withdrawn and 210 μl of 3M KCl per ml of plasma filtered are added a second time to the concentrate.
(§7) The third filtrate is withdrawn and 250 μl of water per ml of plasma filtered are added.
(§8) The filtrates are combined and diluted 5 fold in water, and the whole is injected directly in anion-exchange HPLC. Immediately before injection, the pH of the injected solution is adjusted to 3 by addition of 1N HCl.
(§9) The filtered plasma is analyzed by anion-exchange HPLC.
(§10) The columns used are IonPAc As11 columns (Dionex), with a length of 25 cm and an internal diameter of 2 mm. The detector used is a UV spectrophotometer equipped with an array of diodes.
(§11) The whole of the […] is injected after adjustment of the pH to 3 by addition of N HCl. The flow rate chosen is 0.22 ml/min; the column temperature is 40° C.
(§12) Elution is carried out in gradient mode. The two solutions used are:
(§13) Solvent A: NaH2PO4 2.5 mM, brought to pH 2.9 by addition of H3PO4
(§14) Solvent B: NaClO4 1N, NaH2PO4 2.5 mM, brought to pH 3.0 by addition of H3PO4
(§15) The elution gradient is as follows:
(§16) T=0 min: % B=3; T=40 min: % B=60; T=60 min: % B=80
A VLMWH with an average molecular weight of 2500 Da is administered at the target dose of 1.4 mg/kg to human volunteers. Blood samples are withdrawn at the times 0, 0.25 h, 0.5 h, 0.75 h, 1 h, 1.25 h, 1.5 h, 2 h, 2.5 h, 3 h, 3.5 h, 4 h, 4.5 h, 5 h, 6 h, 7 h, 8 h, 9 h, 10 h, 12 h, 14 h and 24 h after administration.
As the VLMWH used is a complex mixture of oligosaccharides, the study was limited to certain components chosen from this mixture.

ATIII = ATIII (Homo sapiens, UniProt P01008); assay: Affinity for ATIII; type: binding
[2] = Monitoring of the plasma concentration of 3 octasaccharides in beagle dogs after subcutaneous administration (plasma filtration + anion-exchange HPLC); type: in vivo, male dogs of the beagle breed; settings: 0.5 mg/kg each
Method: as §1, §2, §3, §4, §5, §6, §7, §8, §9, §10, §11, §12, §13, §14, §15, §16
The evolution of a mixture of three octasaccharides in the blood of male dogs of the beagle breed is monitored. These 3 octasaccharides, symbolized ΔIIaIIsIsIs, ΔIsIIaIIsIs and ΔIIaIIsIsIs^1,6-anhydro, are the main affinity octasaccharides of the octasaccharide fractions of Lovenox®.
The mixture is administered subcutaneously to 3 male dogs of the beagle breed at a target dose with regard to each of these 3 constituents of 0.5 mg/kg. The administration solution is a 0.9% NaCl solution of the mixture of the 3 octasaccharides at the target concentration of 0.5 mg/ml. Blood samples of 5 ml are withdrawn at the times 0, 0.25 h, 0.5 h, 1 h, 2 h, 4 h, 6 h, 8 h, 24 h, 30 h and 48 h after administration. The blood samples withdrawn are collected in tubes containing 400 μl of a CTAD (citrate, theophylline, adenosine, dipyridamole) mixture. After homogenization, the solution is centrifuged at 3000 g at 15° C. for 15 min. The plasma supernatant is recovered and stored at −20° C. until use.
For the treatment of the plasma before HPLC injection, approximately 1 ml of plasma is withdrawn and weighed, to which 50 μl of a solution of the internal standard at a concentration of approximately 0.02 g/l are added.
The internal standard is chosen so that it is structurally as close as possible to the products to be analyzed. Its structure is given below.
The tetrasaccharide used makes it possible to correct the potentional influence of the variations in the extraction yield.
The plasma is treated and analyzed by HPLC.

Sequence of ATIII (P01008 33-464, species assumed): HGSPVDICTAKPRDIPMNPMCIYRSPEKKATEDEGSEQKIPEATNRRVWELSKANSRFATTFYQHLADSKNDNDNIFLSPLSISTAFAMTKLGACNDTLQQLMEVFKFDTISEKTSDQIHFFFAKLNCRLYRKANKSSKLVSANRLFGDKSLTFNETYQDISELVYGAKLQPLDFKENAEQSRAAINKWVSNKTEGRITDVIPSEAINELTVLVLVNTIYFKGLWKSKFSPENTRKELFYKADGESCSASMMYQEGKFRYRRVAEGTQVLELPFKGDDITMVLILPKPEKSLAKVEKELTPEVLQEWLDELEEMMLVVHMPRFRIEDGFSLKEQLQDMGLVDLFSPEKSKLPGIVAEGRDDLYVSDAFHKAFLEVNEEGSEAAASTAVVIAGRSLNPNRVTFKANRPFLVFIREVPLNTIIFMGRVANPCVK

CC(=O)NC1C(OC2C(C(=O)O)OC(OC3C(COS(=O)(=O)O)OC(OC4C(C(=O)O)OC(OC5C(COS(=O)(=O)O)OC(OC6C(C(=O)O)OC(OC7C(COS(=O)(=O)O)OC(O)C(NS(=O)(=O)O)C7O)C(OS(=O)(=O)O)C6O)C(NS(=O)(=O)O)C5O)C(OS(=O)(=O)O)C4O)C(NS(=O)(=O)O)C3OS(=O)(=O)O)C(O)C2O)OC(COS(=O)(=O)O)C(OC2OC(C(=O)O)=CC(O)C2O)C1O (centres unmarked) [ΔIIaIIsIsIs]
plasma concentration ([1]; 0 h after administration of VLMWH (2500 Da) 1.4 mg/kg): 0.00 µM | plasma concentration ([1]; 0.25 h after administration of VLMWH (2500 Da) 1.4 mg/kg): 0.01 µM | plasma concentration ([1]; 0.5 h after administration of VLMWH (2500 Da) 1.4 mg/kg): 0.03 µM | plasma concentration ([1]; 0.75 h after administration of VLMWH (2500 Da) 1.4 mg/kg): 0.02 µM | plasma concentration ([1]; 1 h after administration of VLMWH (2500 Da) 1.4 mg/kg): 0.03 µM | plasma concentration ([1]; 1.25 h after administration of VLMWH (2500 Da) 1.4 mg/kg): 0.04 µM | plasma concentration ([1]; 1.5 h after administration of VLMWH (2500 Da) 1.4 mg/kg): 0.04 µM | plasma concentration ([1]; 2 h after administration of VLMWH (2500 Da) 1.4 mg/kg): 0.04 µM | plasma concentration ([1]; 2.5 h after administration of VLMWH (2500 Da) 1.4 mg/kg): 0.03 µM | plasma concentration ([1]; 3 h after administration of VLMWH (2500 Da) 1.4 mg/kg): 0.03 µM | plasma concentration ([1]; 3.5 h after administration of VLMWH (2500 Da) 1.4 mg/kg): 0.04 µM | plasma concentration ([1]; 4 h after administration of VLMWH (2500 Da) 1.4 mg/kg): 0.02 µM | plasma concentration ([1]; 4.5 h after administration of VLMWH (2500 Da) 1.4 mg/kg): 0.04 µM | plasma concentration ([1]; 5 h after administration of VLMWH (2500 Da) 1.4 mg/kg): 0.03 µM | plasma concentration ([1]; 6 h after administration of VLMWH (2500 Da) 1.4 mg/kg): 0.02 µM | plasma concentration ([1]; 7 h after administration of VLMWH (2500 Da) 1.4 mg/kg): 0.04 µM | plasma concentration ([1]; 8 h after administration of VLMWH (2500 Da) 1.4 mg/kg): 0.02 µM | plasma concentration ([1]; 9 h after administration of VLMWH (2500 Da) 1.4 mg/kg): 0.02 µM | plasma concentration ([1]; 10 h after administration of VLMWH (2500 Da) 1.4 mg/kg): 0.02 µM | plasma concentration ([1]; 12 h after administration of VLMWH (2500 Da) 1.4 mg/kg): 0.03 µM | plasma concentration ([1]; 14 h after administration of VLMWH (2500 Da) 1.4 mg/kg): 0.02 µM | plasma concentration ([1]; 24 h after administration of VLMWH (2500 Da) 1.4 mg/kg): 0.01 µM | affinity for ATIII (ATIII): high affinity for ATIII | plasma concentration ([2]; Dog 1, 0 h after subcutaneous administration): 0.00 µmol/L | plasma concentration ([2]; Dog 1, 0.25 h after subcutaneous administration): 0.04 µmol/L | plasma concentration ([2]; Dog 1, 0.5 h after subcutaneous administration): 0.18 µmol/L | plasma concentration ([2]; Dog 1, 1 h after subcutaneous administration): 0.33 µmol/L | plasma concentration ([2]; Dog 1, 2 h after subcutaneous administration): 0.59 µmol/L | plasma concentration ([2]; Dog 1, 4 h after subcutaneous administration): 0.47 µmol/L | plasma concentration ([2]; Dog 1, 6 h after subcutaneous administration): 0.36 µmol/L | plasma concentration ([2]; Dog 1, 8 h after subcutaneous administration): 0.28 µmol/L | plasma concentration ([2]; Dog 1, 24 h after subcutaneous administration): 0.04 µmol/L | plasma concentration ([2]; Dog 1, 30 h after subcutaneous administration): 0.02 µmol/L | plasma concentration ([2]; Dog 1, 48 h after subcutaneous administration): 0.00 µmol/L | plasma concentration ([2]; Dog 2, 0 h after subcutaneous administration): 0.00 µmol/L | plasma concentration ([2]; Dog 2, 0.25 h after subcutaneous administration): 0.05 µmol/L | plasma concentration ([2]; Dog 2, 0.5 h after subcutaneous administration): 0.10 µmol/L | plasma concentration ([2]; Dog 2, 1 h after subcutaneous administration): 0.20 µmol/L | plasma concentration ([2]; Dog 2, 2 h after subcutaneous administration): 0.32 µmol/L | plasma concentration ([2]; Dog 2, 4 h after subcutaneous administration): 0.30 µmol/L | plasma concentration ([2]; Dog 2, 6 h after subcutaneous administration): 0.37 µmol/L | plasma concentration ([2]; Dog 2, 8 h after subcutaneous administration): 0.26 µmol/L | plasma concentration ([2]; Dog 2, 24 h after subcutaneous administration): 0.04 µmol/L | plasma concentration ([2]; Dog 2, 30 h after subcutaneous administration): 0.01 µmol/L | plasma concentration ([2]; Dog 2, 48 h after subcutaneous administration): 0.00 µmol/L | plasma concentration ([2]; Dog 3, 0 h after subcutaneous administration): 0.00 µmol/L | plasma concentration ([2]; Dog 3, 0.25 h after subcutaneous administration): 0.06 µmol/L | plasma concentration ([2]; Dog 3, 0.5 h after subcutaneous administration): 0.17 µmol/L | plasma concentration ([2]; Dog 3, 1 h after subcutaneous administration): 0.24 µmol/L | plasma concentration ([2]; Dog 3, 2 h after subcutaneous administration): 0.33 µmol/L | plasma concentration ([2]; Dog 3, 4 h after subcutaneous administration): 0.45 µmol/L | plasma concentration ([2]; Dog 3, 6 h after subcutaneous administration): 0.36 µmol/L | plasma concentration ([2]; Dog 3, 8 h after subcutaneous administration): 0.29 µmol/L | plasma concentration ([2]; Dog 3, 24 h after subcutaneous administration): 0.04 µmol/L | plasma concentration ([2]; Dog 3, 30 h after subcutaneous administration): 0.02 µmol/L | plasma concentration ([2]; Dog 3, 48 h after subcutaneous administration): 0.00 µmol/L
